{"source": "patent US7399638B2", "about": "“Prediction method for lipidosis” (Takeda Pharmaceutical Company Limited, priority 2003, dated 2008)", "key": {"Crj: CD(SD)IGS rats [1]": {"tested_on": "Crj: CD(SD)IGS rats", "experiment": "Urinary PAG/hippuric acid ratio by 1H NMR in rats", "quoted_text": "During the urine pooling, the collecting vessels were kept in an ice-cooled condition. After the urine collection, the urine was centrifuged at 1500×g for 10 minutes, and not less than 1 mL of the supernatant was collected and stored under freezing (below −70° C.) in a microtube in an ultralow-temperature freezer until the measurement. For the negative control group, 24-hour pooled urine was collected under ice cooling; after the urine collection, the urine was stored at −30° C. until the measurement."}, "Crj: CD(SD)IGS rats [2]": {"tested_on": "Crj: CD(SD)IGS rats", "conditions": "rat, in vivo", "experimental": "The following 10 kinds of commercially available drugs were examined as the test compounds for a potential of inducing PLsis by histopathological examination and peripheral blood lymphocyte testing.\nThe following experiments were performed using the prematurely autopsied animals.\nThe high-dose dosing suspension was diluted about 3 fold and 10 fold with dispersant/solvent to prepare intermediate- and low-dose dosing suspensions. […] [For LD50, the Summary Basis of Approval (FDA) for each drug was referenced to.]\nThe animals were examined for mortality, general conditions, body weight, food consumption and the like using PM4800 (Mettler) and EB3200D (Shimadzu Corporation)."}, "[3]": {"conditions": "rat urine, 100 mg/kg/day by gavage, 3 days, mean n = 3-4"}, "[4]": {"conditions": "rat urine, 300 mg/kg/day by gavage, 3 days, mean n = 3-4"}, "[5]": {"conditions": "rat 24-hour pooled urine, 1 mg/kg/day by gavage, 4 days, negative control drug, mean n = 2-4"}, "[6]": {"conditions": "rat 24-hour pooled urine, 3 mg/kg/day by gavage, 4 days, negative control drug, mean n = 2-4"}, "[7]": {"conditions": "rat 24-hour pooled urine, 30 mg/kg/day by gavage, 4 days, negative control drug, mean n = 2-4"}, "[8]": {"conditions": "rat 24-hour pooled urine, 100 mg/kg/day by gavage, 4 days, negative control drug, mean n = 2-4"}, "[9]": {"conditions": "rat urine, 1000 mg/kg/day by gavage, 3 days, mean n = 3-4"}}, "note": "Where two headings read alike, the source gives them in different places. Marks after values point to notes of the source that are not given here.", "data": [{"smiles": "CN(C)CCCN1c2ccccc2CCc2ccccc21", "note": "[Imipramine, imipramine]", "values": [{"measurement": "PAG + hippuric acid/creatinine", "setting": "Crj: CD(SD)IGS rats [1]; [3]", "value": 1.21}, {"measurement": "PAG/creatinine (first term of PAG + hippuric acid)", "setting": "Crj: CD(SD)IGS rats [1]; [3]", "value": 0.34}, {"measurement": "hippuric acid/creatinine (second term of PAG + hippuric acid)", "setting": "Crj: CD(SD)IGS rats [1]; [3]", "value": 0.87}, {"measurement": "PAG + hippuric acid/creatinine", "setting": "Crj: CD(SD)IGS rats [1]; [4]", "value": "0.71*"}, {"measurement": "PAG/creatinine (first term of PAG + hippuric acid)", "setting": "Crj: CD(SD)IGS rats [1]; [4]", "value": 0.40}, {"measurement": "hippuric acid/creatinine (second term of PAG + hippuric acid)", "setting": "Crj: CD(SD)IGS rats [1]; [4]", "value": 0.31}]}, {"smiles": "O=C(Nc1c(Cl)cncc1Cl)c1ccc(OC(F)F)c(OCC2CC2)c1", "note": "[Roflumilast, roflumilast]", "values": [{"measurement": "Histopathological changes (PLsis): Liver", "setting": "Crj: CD(SD)IGS rats [2]; 1 mg/kg/day", "value": "−"}, {"measurement": "Histopathological changes (PLsis): Lung", "setting": "Crj: CD(SD)IGS rats [2]; 1 mg/kg/day", "value": "−"}, {"measurement": "Histopathological changes (PLsis): Lymph node", "setting": "Crj: CD(SD)IGS rats [2]; 1 mg/kg/day", "value": "−"}, {"measurement": "Histopathological changes (PLsis): Others", "setting": "Crj: CD(SD)IGS rats [2]; 1 mg/kg/day", "value": "−"}, {"measurement": "Histopathological changes (PLsis): Spleen", "setting": "Crj: CD(SD)IGS rats [2]; 1 mg/kg/day", "value": "−"}, {"measurement": "Histopathological changes (PLsis): Liver", "setting": "Crj: CD(SD)IGS rats [2]; 3 mg/kg/day", "value": "−"}, {"measurement": "Histopathological changes (PLsis): Lung", "setting": "Crj: CD(SD)IGS rats [2]; 3 mg/kg/day", "value": "−"}, {"measurement": "Histopathological changes (PLsis): Lymph node", "setting": "Crj: CD(SD)IGS rats [2]; 3 mg/kg/day", "value": "−"}, {"measurement": "Histopathological changes (PLsis): Others", "setting": "Crj: CD(SD)IGS rats [2]; 3 mg/kg/day", "value": "−"}, {"measurement": "Histopathological changes (PLsis): Spleen", "setting": "Crj: CD(SD)IGS rats [2]; 3 mg/kg/day", "value": "−"}, {"measurement": "PAG + hippuric acid/creatinine", "setting": "Crj: CD(SD)IGS rats [1]; [5]", "value": 1.39}, {"measurement": "PAG/PAG + hippuric acid", "setting": "Crj: CD(SD)IGS rats [1]; [5]", "value": 10.79, "unit": "%"}, {"measurement": "PAG/creatinine (first term of PAG + hippuric acid)", "setting": "Crj: CD(SD)IGS rats [1]; [5]", "value": 0.15}, {"measurement": "PAG/hippuric acid", "setting": "Crj: CD(SD)IGS rats [1]; [5]", "value": 12.09, "unit": "%"}, {"measurement": "hippuric acid/creatinine (second term of PAG + hippuric acid)", "setting": "Crj: CD(SD)IGS rats [1]; [5]", "value": 1.24}, {"measurement": "PAG + hippuric acid/creatinine", "setting": "Crj: CD(SD)IGS rats [1]; [6]", "value": 1.39}, {"measurement": "PAG/PAG + hippuric acid", "setting": "Crj: CD(SD)IGS rats [1]; [6]", "value": 15.11, "unit": "%"}, {"measurement": "PAG/creatinine (first term of PAG + hippuric acid)", "setting": "Crj: CD(SD)IGS rats [1]; [6]", "value": 0.21}, {"measurement": "PAG/hippuric acid", "setting": "Crj: CD(SD)IGS rats [1]; [6]", "value": 15.41, "unit": "%"}, {"measurement": "hippuric acid/creatinine (second term of PAG + hippuric acid)", "setting": "Crj: CD(SD)IGS rats [1]; [6]", "value": 1.18}]}, {"smiles": "COc1ccc(C2CNC(=O)C2)cc1OC1CCCC1", "note": "(stereo not shown) [Rolipram, rolipram]", "values": [{"measurement": "Histopathological changes (PLsis): Liver", "setting": "Crj: CD(SD)IGS rats [2]; 30 mg/kg/day", "value": "−"}, {"measurement": "Histopathological changes (PLsis): Lung", "setting": "Crj: CD(SD)IGS rats [2]; 30 mg/kg/day", "value": "−"}, {"measurement": "Histopathological changes (PLsis): Lymph node", "setting": "Crj: CD(SD)IGS rats [2]; 30 mg/kg/day", "value": "−"}, {"measurement": "Histopathological changes (PLsis): Others", "setting": "Crj: CD(SD)IGS rats [2]; 30 mg/kg/day", "value": "−"}, {"measurement": "Histopathological changes (PLsis): Spleen", "setting": "Crj: CD(SD)IGS rats [2]; 30 mg/kg/day", "value": "−"}, {"measurement": "Histopathological changes (PLsis): Liver", "setting": "Crj: CD(SD)IGS rats [2]; 100 mg/kg/day", "value": "−"}, {"measurement": "Histopathological changes (PLsis): Lung", "setting": "Crj: CD(SD)IGS rats [2]; 100 mg/kg/day", "value": "−"}, {"measurement": "Histopathological changes (PLsis): Lymph node", "setting": "Crj: CD(SD)IGS rats [2]; 100 mg/kg/day", "value": "−"}, {"measurement": "Histopathological changes (PLsis): Others", "setting": "Crj: CD(SD)IGS rats [2]; 100 mg/kg/day", "value": "−"}, {"measurement": "Histopathological changes (PLsis): Spleen", "setting": "Crj: CD(SD)IGS rats [2]; 100 mg/kg/day", "value": "−"}, {"measurement": "PAG + hippuric acid/creatinine", "setting": "Crj: CD(SD)IGS rats [1]; [7]", "value": 1.43}, {"measurement": "PAG/PAG + hippuric acid", "setting": "Crj: CD(SD)IGS rats [1]; [7]", "value": 17.48, "unit": "%"}, {"measurement": "PAG/creatinine (first term of PAG + hippuric acid)", "setting": "Crj: CD(SD)IGS rats [1]; [7]", "value": 0.25}, {"measurement": "PAG/hippuric acid", "setting": "Crj: CD(SD)IGS rats [1]; [7]", "value": 18.22, "unit": "%"}, {"measurement": "hippuric acid/creatinine (second term of PAG + hippuric acid)", "setting": "Crj: CD(SD)IGS rats [1]; [7]", "value": 1.18}, {"measurement": "PAG + hippuric acid/creatinine", "setting": "Crj: CD(SD)IGS rats [1]; [8]", "value": 1.02}, {"measurement": "PAG/PAG + hippuric acid", "setting": "Crj: CD(SD)IGS rats [1]; [8]", "value": 13.73, "unit": "%"}, {"measurement": "PAG/creatinine (first term of PAG + hippuric acid)", "setting": "Crj: CD(SD)IGS rats [1]; [8]", "value": 0.14}, {"measurement": "PAG/hippuric acid", "setting": "Crj: CD(SD)IGS rats [1]; [8]", "value": 16.29, "unit": "%"}, {"measurement": "hippuric acid/creatinine (second term of PAG + hippuric acid)", "setting": "Crj: CD(SD)IGS rats [1]; [8]", "value": 0.88}]}, {"smiles": "CC/C(=C(\\c1ccccc1)c1ccc(OCCN(C)C)cc1)c1ccccc1", "note": "[Tamoxifen, tamoxifen]", "values": [{"measurement": "Histopathological changes (PLsis): Liver", "setting": "Crj: CD(SD)IGS rats [2]; 100 mg/kg/day", "value": "−"}, {"measurement": "Histopathological changes (PLsis): Lung", "setting": "Crj: CD(SD)IGS rats [2]; 100 mg/kg/day", "value": "+"}, {"measurement": "Histopathological changes (PLsis): Lymph node", "setting": "Crj: CD(SD)IGS rats [2]; 100 mg/kg/day", "value": "+"}, {"measurement": "Histopathological changes (PLsis): Others", "setting": "Crj: CD(SD)IGS rats [2]; 100 mg/kg/day", "value": "−"}, {"measurement": "Histopathological changes (PLsis): Spleen", "setting": "Crj: CD(SD)IGS rats [2]; 100 mg/kg/day", "value": "−"}, {"measurement": "Histopathological changes (PLsis): Liver", "setting": "Crj: CD(SD)IGS rats [2]; 300 mg/kg/day", "value": "+"}, {"measurement": "Histopathological changes (PLsis): Lung", "setting": "Crj: CD(SD)IGS rats [2]; 300 mg/kg/day", "value": "+"}, {"measurement": "Histopathological changes (PLsis): Lymph node", "setting": "Crj: CD(SD)IGS rats [2]; 300 mg/kg/day", "value": "+"}, {"measurement": "Histopathological changes (PLsis): Others", "setting": "Crj: CD(SD)IGS rats [2]; 300 mg/kg/day", "value": "−"}, {"measurement": "Histopathological changes (PLsis): Spleen", "setting": "Crj: CD(SD)IGS rats [2]; 300 mg/kg/day", "value": "−"}, {"measurement": "Histopathological changes (PLsis): Liver", "setting": "Crj: CD(SD)IGS rats [2]; 1000 mg/kg/day", "value": "+"}, {"measurement": "Histopathological changes (PLsis): Lung", "setting": "Crj: CD(SD)IGS rats [2]; 1000 mg/kg/day", "value": "+"}, {"measurement": "Histopathological changes (PLsis): Lymph node", "setting": "Crj: CD(SD)IGS rats [2]; 1000 mg/kg/day", "value": "+"}, {"measurement": "Histopathological changes (PLsis): Others", "setting": "Crj: CD(SD)IGS rats [2]; 1000 mg/kg/day", "value": "−"}, {"measurement": "Histopathological changes (PLsis): Spleen", "setting": "Crj: CD(SD)IGS rats [2]; 1000 mg/kg/day", "value": "−"}, {"measurement": "PAG + hippuric acid/creatinine", "setting": "Crj: CD(SD)IGS rats [1]; [3]", "value": 1.34}, {"measurement": "PAG/creatinine (first term of PAG + hippuric acid)", "setting": "Crj: CD(SD)IGS rats [1]; [3]", "value": 0.31}, {"measurement": "hippuric acid/creatinine (second term of PAG + hippuric acid)", "setting": "Crj: CD(SD)IGS rats [1]; [3]", "value": 1.02}, {"measurement": "PAG + hippuric acid/creatinine", "setting": "Crj: CD(SD)IGS rats [1]; [4]", "value": 1.16}, {"measurement": "PAG/creatinine (first term of PAG + hippuric acid)", "setting": "Crj: CD(SD)IGS rats [1]; [4]", "value": 0.63}, {"measurement": "hippuric acid/creatinine (second term of PAG + hippuric acid)", "setting": "Crj: CD(SD)IGS rats [1]; [4]", "value": 0.53}, {"measurement": "PAG + hippuric acid/creatinine", "setting": "Crj: CD(SD)IGS rats [1]; [9]", "value": 1.58}, {"measurement": "PAG/creatinine (first term of PAG + hippuric acid)", "setting": "Crj: CD(SD)IGS rats [1]; [9]", "value": 0.91}, {"measurement": "hippuric acid/creatinine (second term of PAG + hippuric acid)", "setting": "Crj: CD(SD)IGS rats [1]; [9]", "value": 0.67}]}]}
